In ChEMBL document CHEMBL3044997, “Cytotoxic Effect of Coscinium Fenestratrum (Gaertn.) Colebr. and its Active Principle Berberine on L929 Cells” (2005) one finds Activity data, which are given here for one compound.

Holding throughout (type): functional
For assay [1], the system named is L929. Description: Cytotoxicity against Mus musculus (mouse) L929 cells assessed as metabolically active cells at 200 ug/ml after 24 hr by MTT assay relative to control. In general terms: Formazan colour is commonly taken as a measure of viable cells.
In assay [2] the test system is L929. Briefly: Cytotoxicity against Mus musculus (mouse) L929 cells assessed as metabolically active cells at 50 ug/ml after 24 hr by MTT assay relative to control.
Assay [3] concerns L929. Description: Cytotoxicity against Mus musculus (mouse) L929 cells assessed as metabolically active cells at 100 ug/ml after 24 hr by MTT assay relative to control.
The subject of assay [4] is L929. Description: Cytotoxicity against Mus musculus (mouse) L929 cells assessed as metabolically active cells at 150 ug/ml after 24 hr by MTT assay relative to control.

Take `COc1ccc2cc3[n+](cc2c1OC)CCc1cc2c(cc1-3)OCO2.[Cl-]` [BERBERINE CHLORIDE]: the Activity in assay [1] was 23.57%; in assay [2], 106.45%; in assay [3] it was 67.41%; in assay [4], 41.77%.
